Experimental data reported in PubChem BioAssay (NCI).
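Test compounds were applied to cells in 96-well plates for 48 hours at 5 doses. GI50 = concentration required for 50% inhibition of growth. The concentration for full growth arrest is given as TGI.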

Columns and labels:
Assay in all cases: NCI-60 cell line screen, 48 h
OVCAR-5 ovarian = tested on: OVCAR-5 ovarian
OVCAR-8 ovarian = tested on: OVCAR-8 ovarian
NCI-H226 lung = tested on: NCI-H226 lung
RPMI-8226 leukemia = tested on: RPMI-8226 leukemia
SK-MEL-2 melanoma = tested on: SK-MEL-2 melanoma
TK-10 renal = tested on: TK-10 renal
HL-60(TB) leukemia = tested on: HL-60(TB) leukemia
ACHN renal = tested on: ACHN renal
SK-OV-3 ovarian = tested on: SK-OV-3 ovarian
KM12 colon = tested on: KM12 colon
OVCAR-3 ovarian = tested on: OVCAR-3 ovarian
MDA-MB-435 = tested on: MDA-MB-435
HCT-116 colon = tested on: HCT-116 colon
SF-539 CNS = tested on: SF-539 CNS
M14 melanoma = tested on: M14 melanoma
UO-31 renal = tested on: UO-31 renal
HS 578T breast = tested on: HS 578T breast
IGROV1 ovarian = tested on: IGROV1 ovarian
OVCAR-4 ovarian = tested on: OVCAR-4 ovarian
MDA-MB-231 breast = tested on: MDA-MB-231 breast
SK-MEL-5 melanoma = tested on: SK-MEL-5 melanoma
BT-549 breast = tested on: BT-549 breast
COLO 205 colon = tested on: COLO 205 colon
DU-145 prostate = tested on: DU-145 prostate
MALME-3M melanoma = tested on: MALME-3M melanoma
HT29 colon = tested on: HT29 colon
HOP-92 NSCLC = tested on: HOP-92 NSCLC
SN12C renal = tested on: SN12C renal
K-562 leukemia = tested on: K-562 leukemia

`O=C1C2=C(C(=O)c3c(O)cccc31)C(c1ccco1)c1sc(=O)[nH]c1S2` (stereo unspecified) was tested, and the TGI (OVCAR-5 ovarian) was 4.58 µM, the GI50 (OVCAR-8 ovarian) was 2460 nM and the TGI (OVCAR-8 ovarian) was 8.97 µM. The GI50 (NCI-H226 lung) was 2180 nM, the TGI (NCI-H226 lung) was 5.46 µM and the GI50 (RPMI-8226 leukemia) was 2620 nM. The TGI (RPMI-8226 leukemia) was 9.83 µM, the GI50 (SK-MEL-2 melanoma) was 3.51 µM and the TGI (SK-MEL-2 melanoma) was 16.4 µM. For the same compound, the GI50 (TK-10 renal) was 12.3 µM, the TGI (TK-10 renal) was 26.4 µM and the GI50 (HL-60(TB) leukemia) was 1820 nM. It also gave a TGI (HL-60(TB) leukemia) of 6.09 µM, a GI50 (ACHN renal) of 4.08 µM and a TGI (ACHN renal) of 16.1 µM. The GI50 (SK-OV-3 ovarian) was 15.5 µM, the TGI (SK-OV-3 ovarian) was 29.6 µM and the GI50 (KM12 colon) was 3.71 µM. It also gave a TGI (KM12 colon) of 31.3 µM, a GI50 (OVCAR-3 ovarian) of 2860 nM and a TGI (OVCAR-3 ovarian) of 14 µM. It also gave a GI50 (MDA-MB-435) of 1160 nM, a TGI (MDA-MB-435) of 2470 nM and a GI50 (HCT-116 colon) of 2360 nM. The GI50 (SF-539 CNS) was 1930 nM, the TGI (SF-539 CNS) was 3.69 µM and the GI50 (M14 melanoma) was 1060 nM. It also gave a TGI (M14 melanoma) of 2370 nM, a GI50 (UO-31 renal) of 2560 nM and a TGI (UO-31 renal) of 13.5 µM. The GI50 (HS 578T breast) was 2200 nM, the TGI (HS 578T breast) was 6.56 µM and the GI50 (IGROV1 ovarian) was 2510 nM. For the same compound, the TGI (IGROV1 ovarian) was 6.14 µM, the GI50 (OVCAR-4 ovarian) was 1790 nM and the TGI (OVCAR-4 ovarian) was 3.95 µM. It also gave a GI50 (MDA-MB-231 breast) of 2730 nM, a TGI (MDA-MB-231 breast) of 9.08 µM and a GI50 (SK-MEL-5 melanoma) of 1590 nM. It also gave a TGI (SK-MEL-5 melanoma) of 3 µM, a GI50 (BT-549 breast) of 1640 nM and a TGI (BT-549 breast) of 3.2 µM. It also gave a GI50 (COLO 205 colon) of 1890 nM, a TGI (COLO 205 colon) of 3.61 µM and a GI50 (DU-145 prostate) of 1550 nM. The TGI (DU-145 prostate) was 3.01 µM, the GI50 (MALME-3M melanoma) was 755 nM and the TGI (MALME-3M melanoma) was 2000 nM. The GI50 (HT29 colon) was 3.31 µM, the TGI (HT29 colon) was 9.25 µM and the GI50 (HOP-92 NSCLC) was 3.15 µM. The TGI (HOP-92 NSCLC) was 8.08 µM, the GI50 (SN12C renal) was 1740 nM and the TGI (SN12C renal) was 3.49 µM. The GI50 (K-562 leukemia) was 2840 nM and the TGI (K-562 leukemia) was > 100 µM.
